Article PMC10350923, “In Vitro and In Vivo Biological Activities of Dipicolinate Oxovanadium(IV) Complexes” (Journal of Medicinal Chemistry, 2023)
Values joined by “and” are separate entries in the source; they are usually repeats but may differ in a detail not shown here. Equal entries are not always repeated. “Also recorded” adds a separate entry of the source. Where two headings read alike, the source gives them in different places.

What was measured:
[1] = system: HCT116 (colorectal carcinoma cell line); assay: MTS cell viability assay, HCT116; format: cell-based, human; conditions: 48 h of exposure, mean ± SEM
[2] = system: A2780 (ovarian carcinoma cell line); assay: MTS cell viability assay, A2780; format: cell-based, human; conditions: 48 h of exposure, mean ± SEM
HCT116-DoxR spheroids = assay: MTS assay in 3D spheroids; format: cell-based, human; conditions: HCT116-DoxR spheroids 6- to 8-day-old, 48 h
HCT116-DoxR cells [3] = assay: Cell internalization by ICP-AES; format: cell-based, human; conditions: 3 h exposure to 10x IC50, ICP-AES
HCT116-DoxR cells [4] = assay: Alexa Fluor 488-annexin V/PI apoptosis assay, flow cytometry; format: cell-based, human; conditions: 48 h; for increase of percentage of apoptotic cells normalized to DMSO: IC50; for early apoptosis / late apoptosis / necrosis / percentage of apoptosis (total) / viable cells: complexes at IC50, cisplatin 5 μM, Dox 6 μM
BAX = assay: Western blot, BAX expression; format: cell-based, human; conditions: HCT116-DoxR, 48 h; for BAX/BCL-2 ratio normalized to DMSO control: IC50; for BAX protein expression vs DMSO control: IC50, normalized to β-actin
BCL-2 = assay: Western blot, BCL-2 expression; format: cell-based, human; conditions: HCT116-DoxR, 48 h, IC50, normalized to β-actin
cleaved PARP1 = assay: Western blot, cleaved PARP1 expression; format: cell-based, human; conditions: HCT116-DoxR, 48 h, IC50
caspase-8 = assay: Caspase-8 activity, IETD-pNA cleavage; format: cell-based, human; conditions: HCT116-DoxR, 48 h; complexes at IC50, cisplatin 5 μM
Protocol: Since caspase-8 is an initiator caspase of the extrinsic apoptotic pathway, its activity was evaluated after HCT116-DoxR cells were exposed to complexes 5 and 8 (Figure 8).
The chromogenic substrate IETD-pNA, which results from the conjugation between the peptide IETD (Ile-Glu-Thr-Asp) and the chromophore p-nitroanilide (pNA), is cleaved by caspase-8 and releases pNA, which can be detected by measuring absorbance at 400 nm.[99] Therefore, if complexes 5 and 8 induce cell death through the extrinsic apoptotic pathway, there is an increase in absorbance at 400 nm compared to the control sample, corresponding to an increase in caspase-8 activity that is translated into the cleavage of the substrate IETD-pNA (Figure 8).
(§1) Antibody; Cell Signalling Technology, USA).
(§2) Assay Kit (Abnova Corporation, Walnut, CA, USA).
(§3) vanadium complexes at its IC50 concentrations.
(§4) Cells were then incubated
(§5) Flow Cytometer (Life Technologies, Carlsbad, USA).
(§6) HCT116-DoxR cell line was cultivated

HCT116-DoxR cells [5] = assay: ROS production, H2DCF-DA, flow cytometry; format: cell-based, human; conditions: 48 h, IC50
Protocol: Thus, the level of ROS present in HCT116-DoxR cells after their exposure to vanadium complexes was quantified (Figure 10). The probe 2′,7′-dichlorohydrofluorescein diacetate (H2DCF-DA), which diffuses into cells and is deacetylated by cellular esterases resulting in a nonfluorescent compound, was used. Inside the cell, this molecule is oxidized by ROS and then originates the fluorescent molecule 2′,7′-dichlorofluorescein (DCF) that can be detected by flow cytometry.[103]
(§7) finishing the 48 h period.
(§8) Attune® Cytometric software.
(§9) Butyl hydroperoxide) were used as controls.
(§10) Cells were later analysed
(§11) (double thymidine block).
(§12) After this, the pellet was resuspended in
Control solutions were also prepared, namely a […]

[6] = molecular target: T1, BSA (bovine serum albumin) (Bos taurus, UniProt P02769); assay: BSA binding, UV-vis and fluorescence spectroscopy; conditions: for BSA fluorescence with increasing complex concentrations: BSA 20 μM, complexes 10-100 μM, pH 7.0, 24 h, 37 °C; for interaction with BSA protein: UV-vis and fluorescence spectroscopy
T1 construct: I (1–195), II (196–383), and III (384–583)
T1 sequence (P02769 25-607): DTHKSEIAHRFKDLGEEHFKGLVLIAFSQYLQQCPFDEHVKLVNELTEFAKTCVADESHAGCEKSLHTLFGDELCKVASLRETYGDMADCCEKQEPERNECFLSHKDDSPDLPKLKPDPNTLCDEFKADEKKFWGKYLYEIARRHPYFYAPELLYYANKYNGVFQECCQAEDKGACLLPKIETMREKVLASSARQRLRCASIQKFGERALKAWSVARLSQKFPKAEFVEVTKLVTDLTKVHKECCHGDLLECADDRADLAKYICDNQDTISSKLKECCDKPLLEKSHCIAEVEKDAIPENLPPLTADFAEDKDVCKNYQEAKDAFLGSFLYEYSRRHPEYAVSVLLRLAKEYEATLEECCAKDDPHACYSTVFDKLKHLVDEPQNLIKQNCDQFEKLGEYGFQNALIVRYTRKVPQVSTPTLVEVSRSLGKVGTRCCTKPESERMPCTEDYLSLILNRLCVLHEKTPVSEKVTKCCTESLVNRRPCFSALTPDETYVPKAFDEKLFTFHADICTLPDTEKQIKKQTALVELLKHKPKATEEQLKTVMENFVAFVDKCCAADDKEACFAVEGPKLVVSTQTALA

fibroblasts = assay: Cell migration (wound healing) assay; format: cell-based, human; conditions: 24 h, IC50
Protocol: In the wound healing assay, a region without cells is generated, being then exposed to the compounds, and the cell migration is analyzed after 24 h, to determine the cells’ ability to proliferate and refill the gap previously formed (Figure 14).[116]
as §7, §8, §9, §10, §11, §12
Control solutions were also prepared, namely a
DMSO only. […] The UV-Vis spectra were […]

[7] = system: chick chorioallantoic membrane; assay: Ex ovo chick chorioallantoic membrane (CAM) assay, angiogenesis; format: in vivo, chicken; conditions: chick embryo CAM; for anti-/pro-angiogenic potential, newly formed blood vessels, 48 h: IC50, 48 h
Text: The ex ovo CAM assay was used to evaluate the role of vanadium complexes in the process of angiogenesis. CAM is a chicken extraembryonic membrane and is often used to study the process of angiogenesis in vivo as it has a high density of blood and lymphatic vessels.[120] This assay consists of analyzing certain vascularized areas of the chorioallantoic membrane of a chicken embryo. Initially, o-rings are placed covering those membrane vascularized areas being then exposed to the complexes. Pictures are then taken at 0, 24, and 48 h after exposure to the complexes and the number of blood vessels present at each hour are counted and compared. The results can be observed in Figure 15.
Ex-ovo Chick Chorioallantoic Membrane (CAM) assay
The ex-ovo chorioallantoic membrane (CAM) assay was performed in order to evaluate the angiogenic potential of vanadium complexes, as already described in literature11–13. Firstly, chicken embryos were […]
concentration of each complex dissolved in PBS 1x was placed in the centre of O-rings. Beside each complex, DMSO 0.1% (v/v) was used as a control and complex distribution in chicken embryos was always performed in a different order. The embryos were incubated for 48 h at 37 °C and images were […]
Newly formed blood vessels were later manually counted, via ImageJ software.
The ex-ovo CAM assay fulfils the Directive 2010/63/ EU of the European Parliament for protection of animal models for scientific purposes.
All data are presented as Mean ± SEM from at least two independent experiments unless otherwise specified. One-way ANOVA or Student’s t-test were used to determine statistical significance (p < 0.05) using the GraphPad Prism 8 software (GraphPad Software, San Diego, CA, USA).

[8] = Stability and solubility in RPMI culture medium, UV-vis; format: physicochemical; conditions: UV-vis at 0, 24, 48 h
[9] = system: HCT116-DoxR (doxorubicin-resistant colorectal carcinoma cell line); assay: MTS cell viability assay, HCT116-DoxR;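 also: MTS colorimetric quantification of viable cells, with loss of viability tracked as complex concentration rises, in DMEM-grown HCT116-DoxR, a line whose resistance involves P-glycoprotein efflux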
Protocol: (§13) To assess the cytotoxicity of vanadium complexes in tumor and healthy cells, the MTS assay, a colorimetric method that allows the quantification of viable cells present in solution,[71] was performed.
Cell culture and maintenance
(§14) The A2780 cancer cell line (ovarian carcinoma) was purchased from Sigma-Aldrich (Madrid, Spain)
(§15) while HCT116 cancer cell line (colorectal carcinoma) and the normal human primary dermal
(§16) fibroblasts were obtained from American Type Culture Collection (ATCC®, Manassas, VA, USA).
(§17) HCT116 Dox-resistant cell line (HCT116-DoxR) was derived from HCT116 parental cells, as
(§18) All cells were cultured in Dulbecco’s modified Eagle medium (DMEM), except the A2780 cell line
(§19) which was cultured in RPMI (Roswell Park Memorial Institute) medium. Both media were
(§20) supplemented with 10% (v/v) fetal bovine serum (FBS) and 1% (v/v) of a Pen/Strep
(§21) (Penicillin/Streptomycin) solution. HCT116-DoxR cell medium was additionally supplemented with
(§22) All media and supplements were purchased from Thermo Fischer Scientific (Waltham, Massachusetts, USA).
(§23) (SANYO CO2 Incubator, Electric Biomedical Co., Osaka, Japan).
(§24) HCT116, HCT116-DoxR and A2780 cancer cell lines and normal human primary fibroblasts were
(§25) used in cellular viability assays. Cells were seeded in a density of 0.75×10^5 cells/mL into 96 well-
(§26) After the 24 h of incubation, complexes were
(§27) weight and immediately solubilized in 100% (v/v) DMSO and then, diluted for the final concentration
(§28) with cell culture medium. The medium in each 96 well-plates will be replaced by fresh medium
(§29) containing each vanadium complex (concentrations ranging from 0.01 µM to 50 µM). Culture medium
(§30) with 0.1% (v/v) DMSO and 0.4 µM Dox were used as negative and positive controls, respectively.

[10] = system: normal human primary dermal fibroblasts; assay: MTS cell viability assay, fibroblasts; conditions: read-out: IC50 fibroblasts; 48 h of exposure, MTS, mean ± SEM
Protocol: as §13
Cell culture and maintenance
as §14, §15, §16, §17, §18, §19, §20, §21, §22, §23, §24, §25, §26, §27, §28, §29, §30

HCT116-DoxR cells [11] = assay: Cell cycle progression, PI, flow cytometry; conditions: HCT116-DoxR, 3, 9, 24, 32 h; complexes at IC50, cisplatin 5 μM, Dox 6 μM
HCT116-DoxR cells [12] = assay: Autophagy induction, Green Detection Reagent, flow cytometry; conditions: 48 h, complexes at IC50, cisplatin 5 μM, Dox 6 μM
[13] = n-octanol/PBS buffer partition coefficient, shake-flask, UV-vis; conditions: room temperature
Protocol: The lipophilicity of V(IV) complexes was investigated using the classical shake-flash method at room temperature in the two-phase system of immiscible solvents n-octanol/PBS buffer.[69],[70] The transfer of V(IV) compounds from the aqueous environment to the organic phase was monitored by UV–vis spectroscopy.
The n-octanol/PBS buffer partition coefficients (logP) were determined by shake-flash approach, and
the transfer of V(IV) compounds from the aqueous environment to the organic phase was monitored
by UV-Vis spectroscopy5,6. Solutions of 1–10 of concentrations in the range 10-100 M were prepared
in PBS buffer saturated with n-octanol from the freshly-prepared stock solution in DMSO (5mM or 50
mM), and their UV-Vis spectra were recorded. The solution of 1–10 in aqueous buffer (3 ml) were
mixed with n-octanol saturated with pH 7.4 aqueous buffer (3 ml), and the obtained mixtures were
stirred in a mechanical shaker for 30 min. The mixtures were allowed to stand at room temperature for
24 h, and after this time, the aqueous phases were separated, and the concentrations of 1–10 were
determined by measuring their UV-Vis spectra. For each complex, the highest energy absorption band was taken into consideration to determine the sample concentration.

HCT116-DoxR cells [14] = assay: Mitochondrial membrane potential, JC-1, flow cytometry; format: cell-based, human; conditions: 48 h, complexes at IC50, cisplatin 5 μM, Dox 6 μM
Text: The use of the fluorescent probe JC-1 (5,5,6,6′-tetrachloro-1,1′,3,3′ tetraethylbenzimidazolcarbocyanine iodide) allows the evaluation of ΔΨm, as the aggregation of the probe changes whether the mitochondrial membrane is hyperpolarized or depolarized.[95],[96] In healthy cells with high mitochondrial potential, JC-1 enters and accumulates inside mitochondria, where it forms complexes known as J-aggregates, emitting red fluorescence. However, in cells with a loss of ΔΨm, JC-1 is unable to remain in the mitochondria and exits to the cytoplasm, accumulating in its monomeric form and emitting green fluorescence. Thus, the ratio of the red/green fluorescence intensities can be used to indicate polarization (ratio > 1) or depolarization (ratio < 1) of the mitochondrial membrane (Figure 7).[94],[95]
as §1, §2, §3, §4, §5, §6

[15] = read-out: IC50 2D, HCT116-DoxR 2D culture, 48 h
[16] = read-out: IC50 HCT116-DoxR, 48 h of exposure, MTS, mean ± SEM

Row | SMILES | IC50 [1] | IC50 [2] | IC50 (HCT116-DoxR spheroids) | Concentration in cells (HCT116-DoxR cells [3]) | increase of percentage of apoptotic cells normalized to DMSO (HCT116-DoxR cells [4]) | early apoptosis (HCT116-DoxR cells [4]) | late apoptosis (HCT116-DoxR cells [4]) | necrosis (HCT116-DoxR cells [4]) | percentage of apoptosis (total) (HCT116-DoxR cells [4]) | viable cells (HCT116-DoxR cells [4]) | caspase-8 activity vs 0.1% DMSO (caspase-8) | ROS production, increase over the DMSO control (HCT116-DoxR cells [5]) | BSA fluorescence with increasing complex concentrations [6] | interaction with BSA protein [6] | cell migration (wound remission) (fibroblasts) | anti-/pro-angiogenic potential, newly formed blood vessels, 48 h [7] | stability in RPMI culture medium [8] | IC50 [9, 15] | IC50 [9, 16] | IC50 [10] | further results
1 | COc1ccnc2c1ccc1c(OC)ccnc12.O=C1[O][V](=[O])[O]C(=O)c2cccc1n2 [complex 5, [VO(dipic)(4,7-(CH3O)2-phen)]] | 1800 ± 40 nM | 1300 ± 10 nM | 3500 ± 200 nM | 1.590 µM | 2.5 fold | 59.4 ± 3.6% | 11.5 ± 5.0% | 0.8 ± 0.6% | about 70% | 28.3 ± 3.5% | higher level of caspase-8 | 2.5 fold | high decrease in BSA fluorescence | capable of interacting | do not promote cell migration | no anti-/pro-angiogenic potential | no structural changes | 200 ± 100 nM | 200 ± 100 nM | 3100 ± 70 nM | Internalized percentage (HCT116-DoxR cells [3]): 98.55% and ~100%; BAX/BCL-2 ratio normalized to DMSO control (BAX): ~1; BAX protein expression vs DMSO control (BAX): increased expression; BCL-2 protein expression vs DMSO control (BCL-2): increased expression; increase in expression of cleaved PARP1 vs 0.1% DMSO (cleaved PARP1): 5 fold; cell cycle arrest / cytostatic effect (HCT116-DoxR cells [11]): no cell cycle arrest; increase of autophagic vesicles over the control (HCT116-DoxR cells [12]): ~2.3 fold; log P [13]: 0.55
2 | O=C1[O][V](=[O])[O]C(=O)c2cccc1n2.c1ccc(-c2ccnc3c2ccc2c(-c4ccccc4)ccnc23)cc1 [complex 6, [VO(dipic)(4,7-Ph2-phen)]] | 900 ± 30 nM | 200 ± 90 nM | 3100 ± 420 nM | 1.672 µM | 2.5 fold | 57.7 ± 5.8% | 13.4 ± 5.9% | 1.2 ± 0.9% | about 70% | 27.7 ± 7.9% | not detected | 2.6 fold | high decrease in BSA fluorescence | capable of interacting | do not promote cell migration | no longer present; also recorded: no anti-/pro-angiogenic potential | no spectral changes over time | 200 ± 50 nM | 200 ± 50 nM | 4000 ± 50 nM | Internalized percentage (HCT116-DoxR cells [3]): 98.32% and ~100%; BAX/BCL-2 ratio normalized to DMSO control (BAX): ~3; BAX protein expression vs DMSO control (BAX): increase; BCL-2 protein expression vs DMSO control (BCL-2): decrease; increase in expression of cleaved PARP1 vs 0.1% DMSO (cleaved PARP1): 8 fold; JC-1 red/green fluorescence intensity ratio normalized to DMSO (HCT116-DoxR cells [14]): ~0.69; anti-angiogenic potential, newly formed blood vessels, 24 h ([7]; IC50, 24 h): some anti-angiogenic potential; solubility in RPMI culture medium over time [8]: loss of solubility over time; cell cycle arrest / cytostatic effect (HCT116-DoxR cells [11]): no cell cycle arrest; increase of autophagic vesicles over the control (HCT116-DoxR cells [12]): ~2.3 fold; log P [13]: 0.57
3 | O=C1[O][V](=[O])[O]C(=O)c2cccc1n2.c1cnc2c(c1)ccc1cccnc12 [complex 8, [VO(dipic)(phen)]] | 3700 ± 10 nM | 2100 ± 30 nM | 11700 ± 620 nM | 6.705 µM | 1.7 fold | 44.8 ± 6.2% | 4.5 ± 2.1% | 0.9 ± 0.6% | about 50% | 49.8 ± 6.0% | higher level of caspase-8 | 2.4 fold | high decrease in BSA fluorescence | capable of interacting | do not promote cell migration | no anti-/pro-angiogenic potential | no spectral changes over time | 1300 ± 40 nM | 1300 ± 40 nM | 8600 ± 20 nM | increase of autophagic vesicles over the control (HCT116-DoxR cells [12]): ~2.3 fold; log P [13]: 0.40
